Source: patent US20110098298A1, “New Pyridin-3-Amine Derivatives” (priority 2006, published 2011)

Experiments:
[1] = biological target: T1, human p38alfa (SAPKa) enzyme (Homo sapiens, UniProt Q16539); assay: p38alpha enzymatic inhibition assay (FRET, ATF2 substrate); type: biochemical; settings: 1 h pre-incubation, ATP 60 μM, ATF2 0.62 μM, 25° C., read-out: p38α IC50
T1 construct: purchased University of Dundee
Description: Enzymatic activity assay was performed in 96-well microtiter plates (Corning, catalog number # 3686) using a total volume of 50 μl of an assay buffer composed of 50 mM HEPES pH 7.5, 10 mM MgCl2, 1.75 mM Na3VO4.
Various concentrations of the test compound or vehicle controls were pre-incubated for one hour with 0.055 μg/ml of the human p38alfa (SAPKa) enzyme (obtained from University of Dundee). […] Addition of the detection reagents, streptavidin-XL665 and anti-phosphoresidue antibody coupled to Europium cryptate, caused the juxtaposition of the cryptate and the XL665 fluorophore, resulting in fluorescence energy transfer (FRET). The FRET intensity depends on the amount of bounded cryptate antibody, which is proportional to the extent of substrate phosphorylation. FRET intensity was measured using Victor 2V spectrofluorometer. Data were analyzed by non-linear regression (Hill equation) to generate a dose-response curve. The calculated IC50 value is the concentration of the test compound that caused a 50% decrease in the maximal FRET intensity.

[2] = tested on: TNFα production in human monocytic cell line THP-1; assay: Inhibition of LPS-induced TNFα production in THP-1 cells; type: cell-based; settings: LPS 10 μg/ml, 5 h, TNFα ELISA
Description: The activity of compounds in inhibiting TNFα production was measured in a cellular assay using the human monocytic cell line THP-1. For this purpose, 2×10^5 cells/well were plated in tissue-culture treated round-bottom 96-well plates in RPMI (containing 10% FCS, L-Gln 2 mM, Hepes buffer 10 mM, sodium pyruvate 1 mM, glucose 4.5 gr/L, HNaCO3 1.5 g/L and beta-mercaptoethanol 50 μM), together with compounds at the desired test concentration and LPS (Sigma, L2630) at a final 10 μg/ml concentration. Compounds were resuspended in 100% DMSO at a concentration of 1 mM and titrated thereof in 10× dilutions in medium. Controls included stimulated cells alone and stimulated cells treated with the highest concentration of compound vehicle (1% DMSO). Cells were incubated for 5 h at 37° C. in a 5% CO2 atmosphere. Cell supernatant was recovered by centrifugation and diluted 5-fold prior to testing in a standard human TNFα ELISA (RnD systems).
Data were analyzed by non-linear regression (Hill equation) to generate a dose-response curve. The calculated IC50 value is the concentration of the test compound that caused a 50% decrease in the maximal TNFα production.

T1 sequence (Q16539 whole entry): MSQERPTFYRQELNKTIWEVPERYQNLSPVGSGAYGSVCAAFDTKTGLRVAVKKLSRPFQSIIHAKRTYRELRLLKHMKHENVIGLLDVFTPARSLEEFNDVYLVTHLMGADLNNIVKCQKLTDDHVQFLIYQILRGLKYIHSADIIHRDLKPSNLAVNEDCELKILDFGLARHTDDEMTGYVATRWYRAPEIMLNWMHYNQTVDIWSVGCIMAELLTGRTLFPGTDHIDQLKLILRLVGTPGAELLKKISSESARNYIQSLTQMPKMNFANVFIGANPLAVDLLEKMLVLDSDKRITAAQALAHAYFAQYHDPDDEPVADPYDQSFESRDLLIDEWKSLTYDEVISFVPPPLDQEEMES

IC50 [1] | IC50 [2] | Structure (SMILES)
34 nM | 54 nM | Cc1cccc(C(=O)c2cc[n+]([O-])c(-c3ccccc3C)c2N)c1 [Example 92, [3-Amino-2-(2-methylphenyl)-1-oxidopyridin-4-yl](3-methylphenyl)methanone]
146 nM | 98 nM | COc1ccccc1C(=O)c1cc[n+]([O-])c(-c2c(C)cccc2C)c1N [Example 120, [3-Amino-2-(2,6-dimethylphenyl)-1-oxidopyridin-4-yl](2-methoxyphenyl)metha-none]
31 nM | 118 nM | Cc1ccccc1-c1c(N)c(C(=O)c2ccccc2Cl)cc[n+]1[O-] [Example 82, [3-Amino-2-(2-methylphenyl)-1-oxidopyridin-4-yl](2-chlorophenyl)methanone]
251 nM | 130 nM | Nc1c(C(=O)c2ccc(F)cc2F)ccnc1-c1ccccc1Cl [Example 25, [3-Amino-2-(2-chlorophenyl)pyridin-4-yl](2,4-difluorophenyl)methanone]
– | 84 nM | Cc1cc(O)ccc1-c1c(N)c(C(=O)c2ccc(F)cc2F)cc[n+]1[O-] [Example 48, [3-Amino-2-(4-hydroxy-2-methylphenyl)-1-oxidopyridin-4-yl](2,4-difluorophenyl)methanone]
– | 19.4 nM | Nc1c(C(=O)c2ccc(F)cc2F)cc[n+]([O-])c1-c1c(Cl)cccc1Cl [Example 32, [3-Amino-2-(2,6-dichlorophenyl)-1-oxidopyridin-4-yl](2,4-difluorophenyl)methanone]
20 nM | 48 nM | Cc1cccc(C(=O)c2cc[n+]([O-])c(-c3c(F)cccc3F)c2N)c1 [Example 98, [3-Amino-2-(2,6-difluorophenyl)-1-oxidopyridin-4-yl](3-methylphenyl)methanone]
277 nM | 402 nM | Cc1cc(O)ccc1-c1nccc(C(=O)c2ccc(F)cc2F)c1N [Example 47, [3-Amino-2-(4-hydroxy-2-methylphenyl)pyridin-4-yl](2,4-difluorophenyl)methanone]
359 nM | 349 nM | Nc1c(C(=O)c2cccc(F)c2)ccnc1-c1cccc2c1OCO2 [Example 109, [3-Amino-2-(1,3-benzodioxol-4-yl)pyridin-4-yl](3-fluorophenyl)methanone]
86 nM | 140 nM | COc1ccccc1C(=O)c1cc[n+]([O-])c(-c2c(F)cccc2F)c1N [Example 118, [3-Amino-2-(2,6-difluorophenyl)-1-oxidopyridin-4-yl](2-methoxyphenyl)methanone]
– | 33 nM | Cc1cccc(C)c1-c1c(N)c(C(=O)c2ccc(F)cc2F)cc[n+]1[O-] [Example 36, [3-Amino-2-(2,6-dimethylphenyl)-1-oxidopyridin-4-yl](2,4-difluorophenyl)methanone]
103 nM | 53 nM | Nc1c(C(=O)c2ccc(F)cc2F)ccnc1-c1cccc2c1OCO2 [Example 79, [3-Amino-2-(1,3-benzodioxol-4-yl)pyridin-4-yl](2,4-difluorophenyl)methanone]
– | 76 nM | Nc1c(C(=O)c2ccc(F)cc2F)cc[n+]([O-])c1-c1ccccc1Cl [Example 26, [3-Amino-2-(2-chlorophenyl)-1-oxidopyridin-4-yl](2,4-difluorophenyl)methanone]
